Laboratory results: patent US20050112071A1, “Hypoestoxides, derivatives, agonists and crude extracts thereof for use in cosmetic compositions” (PARAQUEST, INC., priority 2003, published 2005)

Tested on: subjects with psoriasis
Test: erythema resolution in psoriasis plaques after topical administration
Type: in vivo, human
Conditions: 0.5% by weight in cosmetic composition, topical twice daily for one week; two subjects, elbows; observed day 7
Protocol: In another method, an effective amount of hypoestoxide crude extract, hypoestes rosea dried leaf powder or a compound of formula I, in a cosmetic composition or in isolation, is applied to the host's skin to alleviate psoriasis. In a preferred embodiment, 0.5% by weight of pure hypoestoxide in a cosmetic composition was applied to two subjects with psoriasis. Topical administration was performed twice daily for one week at the subjects' job sites. Subjects had crusted erythematous plaques on their elbows. The cosmetic composition consisted of the following ingredients: multi-fruit complex, cetearyl alcohol and ceteareth 20, glyceryl stearate, cetyl alcohol, tocopherol, vitamin A palmatate, allantoin, lanolin, ascorbic acid, botanical extract, xanthan gum, ceteth-20 and propylparaben. Erythema resolution was noted by observation of the subjects' plaques on day 7.

C=C1C(=O)C[C@H]2C[C@@H]3O[C@@]3(C)CC[C@@H]3O[C@@]3(C)C[C@@H](OC(C)=O)[C@H]1C2(C)C [hypoestoxide]
Erythema resolution of crusted erythematous plaques: significant erythema resolution
